The text below walks through data of patent US10933076B2, “Crocin-sorafenib combination therapy for liver cancer” (United Arab Emirates University, priority 2019, dated 2021).

Holding throughout (assay type): in vivo, male Wistar rats
Assay [1] deals with DEN-induced HCC. Kind of assay: Histopathological evaluation of liver (H&E) in DEN-induced HCC rats. The settings on record: HCC groups (FIG. 10). Here is the method:
(§1) In this study, 4 weeks old male Wistar rats were used. The rats were randomly divided into two groups; Control group (n=8) which received 1× PBS via intraperitoneal (i.p.) injection; Experimental group which were injected with DEN at 50 mg/kg b. wt. (Sigma Aldrich, USA) dissolved in PBS once a week for 16 weeks via i.p. This HCC induction protocol was modified from the protocol described by (DePeralta et al., 2016; Schiffer et al., 2005).
(§2) All drugs were orally administered with intragastric (gavage) tube. Doses and route of administration followed what was been previously reported in the literature.
(§3) For the HCC+sorafenib group, sorafenib (Carbosynth Limited) was administered at a dose of 10 mg/kg b.wt. […] A 0.3% solution of DMSO was used to dissolve the sorafenib. […] At the end of the experimental period and after a 24-hour post last drug administration, animals were euthanized using Diethyl ether and sacrificed and dissected under controlled conditions. Blood and liver tissue samples were collected and stored either at room temperature in buffered formalin for histological analysis or at −80 C in PBS for biochemical and immunoblotting analyses.

Assay [2] concerns DEN-induced HCC. Nature of the assay: Liver enzymes (ALT, AST) in serum of DEN-induced HCC rats, colorimetric assay. Here is the method: as §1, §2, §3
The test system of assay [3] is DEN-induced HCC. Nature of the assay: Macroscopic appearance of liver and number of lesions/nodules in DEN-induced HCC rats. Here is the method: as §1, §2, §3
Assay [4] relates to intrinsic apoptotic pathway. Kind of assay: Western blot of intrinsic apoptotic pathway proteins (Bax, Bcl-2, PARP, pro-caspase-3, pro-caspase-9) in livers of DEN-induced HCC rats. The method, then:
as §1, §2, §3
Liver tissue samples (10 mg) were homogenized in cold RIPA buffer (Sigma Aldrich, USA) 2 μl of protease inhibitor and of phosphatases inhibitor were added to the homogenizing buffer (Sigma Aldrich, USA). Protein concentration of each liver sample was determined using the Bradford method (Bio-Rad, Hercules, Calif.) with the Promega GloMax Discover. In order to blot the proteins into the gel, 2-mercaptoethanol, […], was added to the cell lysate produced from the homogenization of liver tissues. The mixture of the lysate and loading dye was then loaded into the SDS-PAGE gel. Variations of gel percentages were used according to the size of protein to be determined. Following the separation of the protein content of each sample on the SDS-PAGE gel, proteins were transferred onto a PVDF membrane and blocked in 5% BSA in TBST or a 5% (w/v) non-fat milk at room temperature for one hour. After the blocking stage, the membranes were incubated with primary anti-body overnight at 4° C. In this study, the primary antibodies selected here were anti-Proliferating Cell Nuclear Antigen (PCNA), anti-caspase-3 (Cell Signaling Technology Inc.), anti-caspase-9 (Nous Biologicals), anti-PolyADP-ribose Polymerase (PARP), anti-Bcl-2, anti-Bax (Santa Cruz). Following the overnight incubation with primary antibodies, the membranes were extensively washed with TBST and re-probed with secondary antibodies including anti-rabbit IgG (Cell Signaling Technology, Inc, MA, USA) and anti-mouse IgG, and conjugated horseradish peroxidase for 1 hour at room temperature. Protein bands were then detected using a chemiluminescence solution known as WesternSure PREMIUM, the signal was detected and visualized using the Bio-Rad ChemiDoc XRS+ System. The intensity of the band was measured using the ImageJ software. The internal control used was total protein which was stained using the SYPRO Ruby protein gel stain following the protocol instructed by the manufacturer (Thermo Fisher Scientific).
Housekeeping proteins are used as the controls for every western blot analysis. Because of their stable expression in tissues, they are great indicators to validate the integrity of the protein samples loaded into the SDS-PAGE gel, therefore accurately reflecting the amount of proteins in the samples. Current research has investigated the ability of these housekeeping proteins to remain stable under different experimental conditions. […] Therefore, an alternative approach was used to resolve this issue. Total protein was utilized as the loading control; this protocol measures the whole protein content of a sample rather than relying on one protein.
In general terms: Immunoblotting shows a protein as a band on a membrane.

A further assay has as its system PCNA. Nature of the assay: Western blot of PCNA in livers of DEN-induced HCC rats. The settings on record: liver, versus HCC; P<0.01 (FIG. 6). The method, then: as §1, §2
For the HCC+sorafenib group, sorafenib (Carbosynth Limited) was administered at a dose of 10 mg/kg b.wt. […]
Liver tissue samples (10 mg) were homogenized in cold RIPA buffer (Sigma Aldrich, USA) 2 μl of protease inhibitor and of phosphatases inhibitor were added to the homogenizing buffer (Sigma Aldrich, USA). Protein concentration of each liver sample was determined using the Bradford method (Bio-Rad, Hercules, Calif.) with the Promega GloMax Discover. […] Variations of gel percentages were used according to the size of protein to be determined. […] Protein bands were then detected using a chemiluminescence solution known as WesternSure PREMIUM, the signal was detected and visualized using the Bio-Rad ChemiDoc XRS+ System. The intensity of the band was measured using the ImageJ software. […]

The next assay concerns reticulin network. Kind of assay: Reticulin staining of liver sections in DEN-induced HCC rats. The note with it: in comparison to HCC groups (FIG. 5). Here is the method:
as §1, §2, §3

Setting [5] is: liver, compared to the HCC group alone, P<0.01 (FIG. 8).
Where [6] appears, read: liver, compared to the HCC group, P<0.05 (FIG. 9).

For the molecule `CC(/C=C/C=C(\C)C(=O)O[C@@H]1O[C@H](CO[C@@H]2O[C@H](CO)[C@@H](O)[C@H](O)[C@H]2O)[C@@H](O)[C@H](O)[C@H]1O)=C\C=C\C=C(C)\C=C\C=C(/C)C(=O)O[C@@H]1O[C@H](CO[C@@H]2O[C@H](CO)[C@@H](O)[C@H](O)[C@H]2O)[C@@H](O)[C@H](O)[C@H]1O` [crocin, Crocetin di-gentiobiose ester], in the assay with DEN-induced HCC [1], the “architecture of the liver (H&E histology)” value is recorded as “restored to a great degree the normal architecture of the liver”. Moreover, the “levels of ALT and AST in the blood” value in the assay on DEN-induced HCC [2] (in comparison to DEN-induced HCC rats (FIG. 11)) was “great impact on lowering the levels of both ALT and AST”. The “level of ALT in serum” value in the assay with DEN-induced HCC [2] (in comparison to the HCC group, crocin 200 mg/kg b.wt., sorafenib 10 mg/kg b.wt., oral gavage 5 times a week, week 17 to 19, P<0.01) is “decrease in the level of ALT”. Further, the “level of ALT in serum” value with DEN-induced HCC [2] (in comparison to the sorafenib alone group (HCC+sorafenib), P<0.05) is recorded as “significantly decreased levels of ALT”. Moreover, the “number of liver lesions” value with DEN-induced HCC [3] (in comparison to the HCC animals (FIG. 4)) is listed as “reduced the number of lesions”. For the same molecule, in the assay on DEN-induced HCC [3] (in comparison to the livers of sorafenib alone (HCC+SB) (FIG. 4)), the “number of liver lesions” value is on record as “significantly lower numbers of lesions”. Further, the “expression of PARP” value in assay [4] (liver, compared to the HCC group alone, P<0.001 (FIG. 8)) is reported as “decreased”. Besides, in assay [4] (setting [5]), the “expression of pro-caspase-3” value was “decreased” and the “expression of pro-caspase-9” value is listed as “decreased”. Besides, in assay [4] (setting [6]), the “expression of anti-apoptotic protein Bcl-2” value is listed as “significantly (P<0.05) decreased” and the “expression of pro-apoptotic protein Bax” value was “increasing the expression”. The “activation of the intrinsic apoptotic pathway” value in assay [4] (western blot analysis (FIGS. 7, 8, 9)) is on record as “triggered the activation of the intrinsic apoptotic pathway”. For the same molecule, in the assay on PCNA, the “expression of PCNA” value is reported as “significantly lowered the expression of PCNA”. For the same molecule, in the assay on reticulin network, the “reticulin network / fiber breakage” value is recorded as “recovered the damage done by the DEN-induction of cancer”.
